Reference: BindingDB's records for doi:10.1111/cbdd.12457 (Universiti Kebangsaan Malaysia, Jalan Raja Muda Abdul Aziz, 2015)

Assays:
[1] = target: T1, Prostaglandin G/H synthase 2 (Homo sapiens, UniProt P35354); experiment: Cyclooxygenase Assay; conditions: pH 8; 25 °C
T1 sequence (P35354 whole entry): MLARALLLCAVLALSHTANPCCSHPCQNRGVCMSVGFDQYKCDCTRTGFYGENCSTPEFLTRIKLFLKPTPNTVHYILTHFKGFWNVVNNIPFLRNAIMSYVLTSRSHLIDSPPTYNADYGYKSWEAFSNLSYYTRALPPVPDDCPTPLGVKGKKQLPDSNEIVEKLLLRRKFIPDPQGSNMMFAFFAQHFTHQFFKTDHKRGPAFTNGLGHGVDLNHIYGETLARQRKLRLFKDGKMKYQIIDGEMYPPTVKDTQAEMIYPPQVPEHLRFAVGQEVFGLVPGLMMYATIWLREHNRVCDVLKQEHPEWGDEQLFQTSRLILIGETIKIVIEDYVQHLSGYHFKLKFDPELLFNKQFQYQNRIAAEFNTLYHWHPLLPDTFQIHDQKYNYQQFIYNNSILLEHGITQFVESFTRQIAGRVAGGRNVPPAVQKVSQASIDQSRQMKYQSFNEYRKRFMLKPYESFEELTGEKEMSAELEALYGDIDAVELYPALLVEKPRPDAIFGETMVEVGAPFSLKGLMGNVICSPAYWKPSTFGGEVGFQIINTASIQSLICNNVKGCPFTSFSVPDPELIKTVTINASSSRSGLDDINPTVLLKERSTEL
Protocol: (§1) 100 mM Tris HCl buffer, pH 8.0 containing 1 µM heme and COX-1 (ovine) or COX-2(human recombinant), which was preincubated for 10 min in a water bath at 37 °C was used for reaction mixture preparation. Addition of 10 µL arachidonic acid to the reaction mixture (final concentration 100 µM) was used to initiate reaction. After 2 min reaction was stopped by addition of 1 M HCl. PGE2 in the reaction mixture was determined using ELISA method. 100 mM potassium phosphate buffer (pH 7.4) was used to dilute the DMSO stock solutions of the test compounds to the desired concentration. This reaction mixture was transferred to a 96-well platethat was precoated with a mouse anti-rabbit IgG. Tracer prostaglandin acetylcholine esterase and primary antibody (mouse anti PGE2) were also added to the plates followed by overnight incubation at room temperature. After overnightincubation, reaction mixtures were pipetted out and the wells were washed with 10 mM potassium phosphate buffer containing 0.05% Twe

[2] = target: T2, Prostaglandin G/H synthase 1 (Ovis aries, UniProt P05979); experiment: Cyclooxygenase Assay; conditions: pH 8; 25 °C
T2 sequence (P05979 whole entry): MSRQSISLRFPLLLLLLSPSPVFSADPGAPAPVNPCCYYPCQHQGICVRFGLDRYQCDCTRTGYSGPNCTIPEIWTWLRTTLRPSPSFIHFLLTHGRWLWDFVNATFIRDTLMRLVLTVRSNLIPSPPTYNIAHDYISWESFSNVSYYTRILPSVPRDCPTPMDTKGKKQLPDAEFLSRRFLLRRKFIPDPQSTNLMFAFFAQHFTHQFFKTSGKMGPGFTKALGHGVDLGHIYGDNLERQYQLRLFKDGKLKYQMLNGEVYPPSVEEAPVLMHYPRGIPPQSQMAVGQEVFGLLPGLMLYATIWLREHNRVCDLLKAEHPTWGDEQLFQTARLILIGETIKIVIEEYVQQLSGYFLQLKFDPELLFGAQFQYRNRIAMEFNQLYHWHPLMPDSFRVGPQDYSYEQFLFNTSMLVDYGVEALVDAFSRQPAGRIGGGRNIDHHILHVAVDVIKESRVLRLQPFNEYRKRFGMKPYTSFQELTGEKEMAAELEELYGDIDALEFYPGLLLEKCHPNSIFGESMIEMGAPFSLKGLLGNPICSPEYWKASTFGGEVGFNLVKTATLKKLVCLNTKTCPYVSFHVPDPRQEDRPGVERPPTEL
Protocol: as §1

[3] = target: T3, Phospholipase A2 group V (Homo sapiens, UniProt P39877); experiment: sPLA2V Activity Assay; conditions: pH 7.5; 25 °C
T3 sequence (P39877 whole entry): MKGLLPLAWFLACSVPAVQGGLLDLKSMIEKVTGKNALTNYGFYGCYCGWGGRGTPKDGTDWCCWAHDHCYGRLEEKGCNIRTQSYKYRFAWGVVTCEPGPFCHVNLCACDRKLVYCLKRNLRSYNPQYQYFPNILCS
Protocol: Briefly, sn-2ester bond of the substrate 1,2-bis(heptanoylthio)-glycerophosphocholine was hydrolyzed by PLA2-V followed by the exposure of free thiols. These thiols activated the conversion of DTNB (5,5–dithio-bis-(2-nitrobenzoic acid) to 2-nitro-5-thiobenzoic acid, which was photometrically detected at 405 nm. After this, the assay proceeded in an aqueous buffer solution (pH 7.5) containing KCl (94 mM), CaCl2 (9 mM), Tris (24 mM), and Triton-X 100 ([…]). Before the assay was started, substrate and PLA2-V was resuspended in assay buffer whereas DTNB was dissolved in an aqueous solution of Tris-HCl (pH 8) yielding an enzyme and DTNB concentrations of 100 ng/mL and 87 BM, respectively. 96-well micro titre plates containing substrate solution, DTNB, and the respective test substance were used to carry out assays at room temperature.

SMILES	IC50 [1] [µM]	IC50 [2] [µM]	IC50 [3] [µM]
CN(C)c1ccc(/C=C/C(=O)c2ccc3c(c2)OCCO3)c2ccccc12 [1-(2,3-Dihydro-benzo[1,4]dioxin-6-yl)-3-(4-dimethylamino-naphthalen-1-yl)-propenone (4)]	24.5	7.06	32.2
COc1cc2ccccc2c(/C=C/C(=O)c2cc3ccccc3o2)c1OC [1-Benzofuran-2-yl-3-(2,3-dimethoxy-naphthalen-1-yl)-propenone (3)]	12.2	12.5	12.7
COc1ccc2c(OC)ccc(/C=C/C(=O)c3cc4ccccc4o3)c2c1 [1-Benzofuran-2-yl-3-(4,7-dimethoxy-naphthalen-1-yl)-propenone (2)]	19.1	15	27.8
COc1cc2ccccc2c(C2CC(c3ccc4c(c3)OCCO4)=NN2C(N)=S)c1OC (stereo unspecified) [3-(2,3-Dihydro-benzo[1,4]dioxin-6-yl)-5-(2,3-dimethoxy-naphthalen-1-yl)-4,5-dihydro-pyrazole-1-carbothioic acid amide (5a)]	17.8	3.42	19.2
COc1cc2ccccc2c(C2CC(c3ccc4c(c3)OCCO4)=NN2C(=O)Nc2ccc(Cl)cc2)c1OC (stereo unspecified) [3-(2,3-Dihydro-benzo[1,4]dioxin-6-yl)-5-(2,3-dimethoxy-naphthalen-1-yl)-4,5-dihydropyrazole-1-carboxylic acid (4-chloro-phenyl)-amide (5b)]	12.3	1.17	17.3
COc1ccc2c(OC)ccc(C3CC(c4ccc5c(c4)OCCO5)=NN3C(N)=S)c2c1 (stereo unspecified) [3-(2,3-Dihydro-benzo[1,4]dioxin-6-yl)-5-(4,7-dimethoxy-naphthalen-1-yl)-4,5-dihydro-pyrazole-1-carbothioic acid amide (6a)]	12.6	2.82	7.12
COc1ccc2c(OC)ccc(C3CC(c4ccc5c(c4)OCCO5)=NN3C(=O)Nc3ccc(Cl)cc3)c2c1 (stereo unspecified) [3-(2,3-Dihydro-benzo[1,4]dioxin-6-yl)-5-(4,7-dimethoxy-naphthalen-1-yl)-4,5-dihydropyrazole-1-carboxylic acid (4-chloro-phenyl)-amide (6b)]	12	0.94	5.12
CN(C)c1ccc(C2CC(c3ccc4c(c3)OCCO4)=NN2C(N)=S)c2ccccc12 (stereo unspecified) [3-(2,3-Dihydro-benzo[1,4]dioxin-6-yl)-5-(4-dimethylamino-naphthalen-1-yl)-4,5-dihydropyrazole-1-carbothioic acid amide (4a)]	13.2	1.12	22.2
CN(C)c1ccc(C2CC(c3ccc4c(c3)OCCO4)=NN2C(=O)Nc2ccc(Cl)cc2)c2ccccc12 (stereo unspecified) [3-(2,3-Dihydro-benzo[1,4]dioxin-6-yl)-5-(4-dimethylamino-naphthalen-1-yl)-4,5-dihydropyrazole-1-carboxylic acid (4-chloro-phenyl)-amide (4b)]	9.72	0.44	17.2
COc1cc2ccccc2c(C2CC(c3cc4ccccc4o3)=NN2C(N)=S)c1OC (stereo unspecified) [3-Benzofuran-2-yl-5-(2,3-dimethoxy-naphthalen-1-yl)-4,5-dihydro-pyrazole-1-carbothioic acid amide (3a)]	10.3	8.06	9.17
COc1cc2ccccc2c(C2CC(c3cc4ccccc4o3)=NN2C(=O)Nc2ccc(Cl)cc2)c1OC (stereo unspecified) [3-Benzofuran-2-yl-5-(2,3-dimethoxy-naphthalen-1-yl)-4,5-dihydro-pyrazole-1-carboxylic acid(4-chloro-phenyl)-amide (3b)]	5.02	0.99	8.46
COc1ccc2c(OC)ccc(C3CC(c4cc5ccccc5o4)=NN3C(N)=S)c2c1 (stereo unspecified) [3-Benzofuran-2-yl-5-(4,7-dimethoxy-naphthalen-1-yl)-4,5-dihydro-pyrazole-1-carbothioic acid amide (2a)]	12.3	7.22	21.1
COc1ccc2c(OC)ccc(C3CC(c4cc5ccccc5o4)=NN3C(=O)Nc3ccc(Cl)cc3)c2c1 (stereo unspecified) [3-Benzofuran-2-yl-5-(4,7-dimethoxy-naphthalen-1-yl)-4,5-dihydro-pyrazole-1-carboxylic acid(4-chloro-phenyl)-amide (2b)]	11.1	2.14	14.5
CN(C)c1ccc(C2CC(c3cc4ccccc4o3)=NN2C(N)=S)c2ccccc12 (stereo unspecified) [3-Benzofuran-2-yl-5-(4-dimethylamino-naphthalen-1-yl)-4,5-dihydro-pyrazole-1-carbothioic acid amide (1a)]	14.5	4.53	35.4
CN(C)c1ccc(C2CC(c3cc4ccccc4o3)=NN2C(=O)Nc2ccc(Cl)cc2)c2ccccc12 (stereo unspecified) [3-Benzofuran-2-yl-5-(4-dimethylamino-naphthalen-1-yl)-4,5-dihydro-pyrazole-1-carboxylic acid(4-chloro-phenyl)-amide (1b)]	9.1	1.87	22.2
C[C@@H]1C[C@H]2[C@@H]3CCC4=CC(=O)C=C[C@]4(C)[C@@]3(F)[C@@H](O)C[C@]2(C)[C@@]1(O)C(=O)CO [dexamethasone (tetramethyl-rhodamine conjugated )]			0.62
